# Data taken from patent publication US8765422B2, “D4 desaturases and D5 elongases” (priority 2007, dated 2014).
# Values joined by “and” are separate entries in the source; they are usually repeats but may differ in a detail not shown here. Equal values may be shown once.
# Key:
# [1] = system: Δ5-elongase from Thraustochytrium ONC-T18; assay: Δ5-elongase (clone pYElo) expressed in Saccharomyces cerevisiae INVSc1, fed free fatty acid substrate, percent conversion by FAME GC; type: cell-based, Thraustochytrium sp. ONC-T18; conditions: pYElo in yeast
# Method: The activity and specificity of the D4-desaturase and D5 elongase were determined using the yeast expression system. The transformed yeast was grown in SC-U medium containing 2% glucose, 1% Tergitol NP-40 for 48 hrs, 150 RPM at 30° C. A substrate medium was prepared containing SC-U, 2% galactose, 1% raffinose, 1% Tergitol NP-40 and 500 μM specific free fatty acid. The transformed yeast culture was inoculated into 100 ml substrate medium at an OD600 of 0.5 and cultures incubated at 20° C. for 5 days. The biomass was recovered by centrifugation at 2000 RPM for 5 min, washed once with 100 mM phosphate buffer (pH 7.0), then freeze dried. Fatty acid methyl ester gas chromatography was subsequently carried out to determine the efficiency of fatty acid desaturation and elongation. The percent conversion of the substrate was determined by calculating (product)/(substrate+product)*100. […]
# The negative control strain was INVSc1 containing the unaltered pYES2 vector, and these were grown simultaneously. […] The FAMEs were resuspended in iso-octane and analysed by GC-FID. The percent conversion was calculated by dividing the product produced by the sum of (the product produced+the substrate added) and then multiplying by 100. […]
# [2] = system: Δ4-desaturase from Thraustochytrium ONC-T18; assay: Δ4-desaturase (clone pYDes) expressed in Saccharomyces cerevisiae INVSc1, fed free fatty acid substrate, percent conversion by FAME GC; type: cell-based, Thraustochytrium sp. ONC-T18; conditions: for % conversion average, vector pYDes: pYDes in INVSc1, 500 μM substrate, GC-FID of FAMEs; for % conversion average, vector pYDes / % conversion With 0.01% ferric citrate: 96 hours at 20° C.; for increase With 0.01% ferric citrate: conversion with 0.01% ferric citrate versus without; for % conversion average (substrate to product) / % conversion With 0.01% ferric citrate: pYDes in yeast; for % conversion average (substrate to product): 500 μM free fatty acid substrate, 20° C., (product)/(substrate+product)*100; for % conversion With 0.01% ferric citrate: 500 μM substrate
# Method: The activity and specificity of the D4-desaturase and D5 elongase were determined using the yeast expression system. The transformed yeast was grown in SC-U medium containing 2% glucose, 1% Tergitol NP-40 for 48 hrs, 150 RPM at 30° C. A substrate medium was prepared containing SC-U, 2% galactose, 1% raffinose, 1% Tergitol NP-40 and 500 μM specific free fatty acid. The transformed yeast culture was inoculated into 100 ml substrate medium at an OD600 of 0.5 and cultures incubated at 20° C. for 5 days. The biomass was recovered by centrifugation at 2000 RPM for 5 min, washed once with 100 mM phosphate buffer (pH 7.0), then freeze dried. Fatty acid methyl ester gas chromatography was subsequently carried out to determine the efficiency of fatty acid desaturation and elongation. The percent conversion of the substrate was determined by calculating (product)/(substrate+product)*100.
# Clone pYDes, which consisted of the full length Δ4-desaturase cloned into pYES2 (Invitrogen, Carlsbad, Calif.), and clone pYElo, which consisted of the full-length Δ5-elongase gene in pYES2, were transformed into competent Saccharomyces cerevisiae INVSc1. Yeast transformation was carried out using the S. c. EasyComp Transformation kit (Invitrogen, Carlsbad, Calif.) according to conditions specified by the manufacturer. Transformants were selected for uracil auxotrophy on media lacking uracil (SC-Ura). To detect the specific desaturase activity of these clones, transformants were grown in the presence of 500 μM specific fatty acid substrates as listed below: A) Docosapentaenoic acid (22:5n-3) (conversion to docosahexaenoic acid would indicate Δ4-desaturase activity), B) Docosatetraenoic acid (22:4n-6) (conversion to docosapentaenoic acid (22:5n-6) would indicate Δ4-desaturase activity), C) Dihomo-gamma-linolenic acid (20:3n-6) (conversion to arachidonic acid (20:4n-6) would indicate Δ5-desaturase activity), D) Eicosapentaenoic acid (20:5n-3) (conversion to docosapentaenoic acid (22:5n-3) would indicate Δ5-elongase activity), E) Arachidonic acid (20:4n-6) (conversion to docosatetraenoic acid (22:4n-6) would indicate Δ5-elongase activity)
# The negative control strain was INVSc1 containing the unaltered pYES2 vector, and these were grown simultaneously. The cultures were vigorously agitated (150 rpm) and grown for 96 hours at 20° C. in the presence of 500 μM (final concentration) of the various substrates. The cells were pelleted and washed in 100 mM phosphate buffer, pH 7.0, cell pellets were freeze dried. The lipids were then extracted and derivitized to fatty acid methyl esters (FAME) for gas chromatography analysis (GC). Transesterification and extraction was done using 100 mg freeze dried cells, with C19:0 as internal standard, added transesterification reaction mix (methanol: hydrochloric acid: chloroform, 10:1:1) mixed and heated at 90° C. for 2 hours, then allowed to cool at room temperature. FAMEs were extracted by adding 1 ml water, and 2 ml hexane: chloroform (4:1), and allow organic and aqueous phases to separate. The organic layer was extracted and treated with 0.5 g of anhydrous sodium sulfate to remove particulates and residual water. The organic solvents were evaporated under a stream of argon. The FAMEs were resuspended in iso-octane and analysed by GC-FID. The percent conversion was calculated by dividing the product produced by the sum of (the product produced+the substrate added) and then multiplying by 100.
# Clone pYDes, which consisted of the full length Δ4-desaturase cloned into pYES2 (Invitrogen, Carlsbad, Calif.), was transformed into competent Saccharomyces cerevisiae INVSc1. The negative control strain was INVSc1 containing the unaltered pYES2 vector, and these were grown simultaneously.
SMILES,conversion of substrate by pYElo [1],"% conversion average, vector pYDes [2] [%]",increase With 0.01% ferric citrate [2] [fold],% conversion average (substrate to product) [2],% conversion With 0.01% ferric citrate [2] [%],other results
"CCCCC/C=C\C/C=C\C/C=C\C/C=C\CCCC(=O)O [ARA, Arachidonic acid (20:4n-6)]",minimal conversion,–,–,–,–,–
"CCCCC/C=C\C/C=C\C/C=C\CCCCCCC(=O)O [DGLA, Dihomo-gamma-linolenic acid (20:3n-6)]",–,0.87,–,–,–,–
"CC/C=C\C/C=C\C/C=C\C/C=C\C/C=C\CCCCCC(=O)O [DPA, Docosapentaenoic acid (22:5n-3)]",–,14,2.75,14.04%,38.70,"% conversion average, vector pYDes ([2]; listed as C22:5 n-3): 14.04%; % conversion average (substrate to product) ([2]; listed as DPA n-3): 14%; DPA to DHA conversion on addition of ferric citrate to the media ([2]; pYDes, trace metal ferric citrate added): increase"
"CCCCC/C=C\C/C=C\C/C=C\C/C=C\CCCCCC(=O)O [DTA, Docosatetraenoic acid (22:4n-6)]",–,14,2.43,14% and 13.76%,33.43,"% conversion average, vector pYDes ([2]; listed as C22:4 n-6): 13.76%"
"CC/C=C\C/C=C\C/C=C\C/C=C\C/C=C\CCCC(=O)O [EPA, Eicosapentaenoic acid (20:5n-3)]",minimal conversion,–,–,–,–,–
